Laboratory results reported in US8785488B2 (Exelixis Patent Company LLC, priority 2009, dated 2014).
pEC50: −log10 of the molar value.

Molecular target: T1, human TGR5 (h-TGR5) (Homo sapiens, UniProt Q8TDU6)
T1 construct: expressed in transfected cells
T1 sequence (Q8TDU6 1-330): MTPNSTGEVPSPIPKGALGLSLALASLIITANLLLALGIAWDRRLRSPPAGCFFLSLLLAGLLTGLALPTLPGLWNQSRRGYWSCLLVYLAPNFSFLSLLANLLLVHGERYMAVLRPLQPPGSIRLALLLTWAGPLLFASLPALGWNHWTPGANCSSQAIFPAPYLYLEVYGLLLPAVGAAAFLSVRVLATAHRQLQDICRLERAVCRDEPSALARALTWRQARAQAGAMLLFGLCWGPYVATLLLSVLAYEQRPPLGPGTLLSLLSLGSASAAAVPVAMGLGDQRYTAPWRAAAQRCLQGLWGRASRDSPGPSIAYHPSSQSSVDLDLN
Test: TGR5/CRE-Luciferiase Assay (HEK 293 hTGR5/CRE-Luc cells)
Type: cell-based
Details: h-TGR5 CRE-Luc EC50, Table 1; read-out: CRE-Luc (EC50)
Experimental: Compounds were serially diluted in DMEM containing 5% DMSO and 5 μL of compound or media alone was transferred to each well and plates were incubated for 6 hours. Following incubation, 30 μL of lysis/luciferase buffer was added to each well. The luciferase activity was then measured on the EnVision™ plate reader and the dose response data was analyzed using ActivityBase.
In the following tables, EC50 values determined according to the TGR5 cAMP Assay described herein (cAMP); EC50 values determined according to the TGR5/CRE-Luciferiase Assay described herein (CRE-Luc). […] The following compounds in Tables 1 and 2 were made by using procedures described in the above Schemes and Examples, and, where applicable, by making any necessary substitutions of known materials that one skilled in the art would ordinarily understand how to do.

Row | SMILES | pEC50
1 | COc1ccc(C(C)(C)c2cnc(SCc3c(F)cccc3C(=O)O)n2-c2ccc(F)cc2)cc1OC [2-({[5-{1-[3,4-bis(methyloxy)phenyl]-1-methylethyl}-1-(4-fluorophenyl)-1H-imidazol-2-yl]thio}methyl)-3-fluorobenzoic acid] | 6.00 to 7.00
2 | CC(C)(c1ccc(Cl)c(Cl)c1)c1cnc(COCc2ccc(F)cc2Cl)n1-c1ccc(F)cc1 [2-({[(2-chloro-4-fluorophenyl)methyl]oxy}methyl)-5-[1-(3,4-dichlorophenyl)-1-methylethyl]-1-(4-fluorophenyl)-1H-imidazole] | 5.00 to 6.00
3 | COc1cc(C(C)(C)c2cnc(SCC3CCN(CCO)CC3)n2-c2ccc(F)cc2)ccc1Cl [2-[4-({[5-{1-[4-chloro-3-(methyloxy)phenyl]-1-methylethyl}-1-(4-fluorophenyl)-1H-imidazol-2-yl]thio}methyl)piperidin-1-yl]ethanol] | 5.00 to 6.00
4 | CC(C)(Oc1ccc(C(C)(C)c2cnc(SCc3ccc(F)cc3Cl)n2-c2ccc(F)cc2)cc1Cl)C(=O)O [2-[(2-chloro-4-{1-[2-{[(2-chloro-4-fluorophenyl)methyl]thio}-1-(4-fluorophenyl)-1H-imidazol-5-yl]-1-methylethyl}phenyl)oxy]-2-methylpropanoic acid] | 6.00 to 7.00
5 | CCN(CC)CCOc1cc(C(C)(C)c2cnc(SCc3c(F)cccc3Cl)n2-c2ccc(F)cc2)ccc1Cl [2-[(2-chloro-5-{1-[2-{[(2-chloro-6-fluorophenyl)methyl]thio}-1-(4-fluorophenyl)-1H-imidazol-5-yl]-1-methylethyl}phenyl)oxy]-N,N-diethylethanamine] | 6.00 to 7.00
6 | CN(C)CCOc1ccc(C(C)(C)c2cnc(SCc3c(F)cccc3Cl)n2-c2ccc(F)cc2)cc1 [2-[(4-{1-[2-{[(2-chloro-6-fluorophenyl)methyl]thio}-1-(4-fluorophenyl)-1H-imidazol-5-yl]-1-methylethyl}phenyl)oxy]-N,N-dimethylethanamine] | 5.00 to 6.00
7 | CC(C)(c1ccc(OCCO)cc1)c1cnc(SCc2c(F)cccc2Cl)n1-c1ccc(F)cc1 [2-[(4-{1-[2-{[(2-chloro-6-fluorophenyl)methyl]thio}-1-(4-fluorophenyl)-1H-imidazol-5-yl]-1-methylethyl}phenyl)oxy]ethanol] | 6.00 to 7.00
8 | CC(C)(c1ccc(Cl)c(Cl)c1)c1cnc(/C=C/c2c(F)cccc2Cl)n1-c1ccc(F)cc1 [2-[(E)-2-(2-chloro-6-fluorophenyl)ethenyl]-5-[1-(3,4-dichlorophenyl)-1-methylethyl]-1-(4-fluorophenyl)-1H-imidazole] | 5.00 to 6.00
9 | CC(C)(c1ccc(Cl)c(Cl)c1)c1cnc(SCc2c(F)cccc2C(=O)O)n1-c1ccc(F)cc1 [2-[({5-[1-(3,4-dichlorophenyl)-1-methylethyl]-1-(4-fluorophenyl)-1H-imidazol-2-yl}thio)methyl]-3-fluorobenzoic acid] | 6.00 to 7.00
10 | CC(C)(c1ccc(Cl)c(Cl)c1)c1cnc(SCc2ccc(F)cc2C(N)=O)n1-c1ccc(F)cc1 [2-[({5-[1-(3,4-dichlorophenyl)-1-methylethyl]-1-(4-fluorophenyl)-1H-imidazol-2-yl}thio)methyl]-5-fluorobenzamide] | 6.00 to 7.00
11 | CC(C)(c1ccc(Cl)c(Cl)c1)c1cnc(SCc2ccc(F)cc2S(N)(=O)=O)n1-c1ccc(F)cc1 [2-[({5-[1-(3,4-dichlorophenyl)-1-methylethyl]-1-(4-fluorophenyl)-1H-imidazol-2-yl}thio)methyl]-5-fluorobenzenesulfonamide] | 6.00 to 7.00
12 | CC(C)(c1ccc(Cl)c(Cl)c1)c1cnc(SCc2ccc(F)cc2C(=O)O)n1-c1ccc(F)cc1 [2-[({5-[1-(3,4-dichlorophenyl)-1-methylethyl]-1-(4-fluorophenyl)-1H-imidazol-2-yl}thio)methyl]-5-fluorobenzoic acid] | 6.00 to 7.00
13 | CC(C)(c1ccc(Cl)c(Cl)c1)c1cnc(SCc2ccc(F)cc2C#N)n1-c1ccc(F)cc1 [2-[({5-[1-(3,4-dichlorophenyl)-1-methylethyl]-1-(4-fluorophenyl)-1H-imidazol-2-yl}thio)methyl]-5-fluorobenzonitrile] | 6.00 to 7.00
14 | CC(C)(c1ccc(Cl)c(Cl)c1)c1cnc(COc2ccc(C(N)=O)c(Cl)c2)n1-c1ccc(F)cc1 [2-chloro-4-[({5-[1-(3,4-dichlorophenyl)-1-methylethyl]-1-(4-fluorophenyl)-1H-imidazol-2-yl}methyl)oxy]benzamide] | 5.00 to 6.00
15 | CC(C)(c1ccc(Cl)c(Cl)c1)c1cnc(SCc2ccc(C(N)=O)c(Cl)c2)n1-c1ccc(F)cc1 [2-chloro-4-[({5-[1-(3,4-dichlorophenyl)-1-methylethyl]-1-(4-fluorophenyl)-1H-imidazol-2-yl}thio)methyl]benzamide] | 6.00 to 7.00
16 | CC(C)(c1ccc(Cl)c(Cl)c1)c1cnc(SCc2ccc(C(=N)N)c(Cl)c2)n1-c1ccc(F)cc1 [2-chloro-4-[({5-[1-(3,4-dichlorophenyl)-1-methylethyl]-1-(4-fluorophenyl)-1H-imidazol-2-yl}thio)methyl]benzenecarboximidamide] | 5.00 to 6.00
17 | CC(C)(c1ccc(Cl)c(Cl)c1)c1cnc(SCc2ccc(C#N)c(Cl)c2)n1-c1ccc(F)cc1 [2-chloro-4-[({5-[1-(3,4-dichlorophenyl)-1-methylethyl]-1-(4-fluorophenyl)-1H-imidazol-2-yl}thio)methyl]benzonitrile] | 6.00 to 7.00
18 | CC(C)(c1ccc(Cl)c(Cl)c1)c1cnc(COc2ccc(Cl)c(S(N)(=O)=O)c2)n1-c1ccc(F)cc1 [2-chloro-5-[({5-[1-(3,4-dichlorophenyl)-1-methylethyl]-1-(4-fluorophenyl)-1H-imidazol-2-yl}methyl)oxy]benzenesulfonamide] | 6.00 to 7.00
19 | CC(C)(c1ccc(Cl)c(Cl)c1)c1cnc(SCc2ccc(Cl)c(C(N)=O)c2)n1-c1ccc(F)cc1 [2-chloro-5-[({5-[1-(3,4-dichlorophenyl)-1-methylethyl]-1-(4-fluorophenyl)-1H-imidazol-2-yl}thio)methyl]benzamide] | > 7.00
20 | CC(C)(c1ccc(Cl)c(Cl)c1)c1cnc(SCc2ccc(Cl)c(C(=N)N)c2)n1-c1ccc(F)cc1 [2-chloro-5-[({5-[1-(3,4-dichlorophenyl)-1-methylethyl]-1-(4-fluorophenyl)-1H-imidazol-2-yl}thio)methyl]benzenecarboximidamide] | 5.00 to 6.00
21 | CC(C)(c1ccc(Cl)c(Cl)c1)c1cnc(SCc2ccc(Cl)c(C(=O)O)c2)n1-c1ccc(F)cc1 [2-chloro-5-[({5-[1-(3,4-dichlorophenyl)-1-methylethyl]-1-(4-fluorophenyl)-1H-imidazol-2-yl}thio)methyl]benzoic acid] | 6.00 to 7.00
22 | CC(C)(c1ccc(Cl)c(S(N)(=O)=O)c1)c1cnc(SCc2ccc(Cl)c(-c3nnn[nH]3)c2)n1-c1ccc(F)cc1 [2-chloro-5-{1-[2-({[4-chloro-3-(1H-tetrazol-5-yl)phenyl]methyl}thio)-1-(4-fluorophenyl)-1H-imidazol-5-yl]-1-methylethyl}benzenesulfonamide] | 6.00 to 7.00
23 | CC(C)(c1ccc(Cl)c(O)c1)c1cnc(SCc2c(F)cccc2Cl)n1-c1ccc(F)cc1 [2-chloro-5-{1-[2-{[(2-chloro-6-fluorophenyl)methyl]thio}-1-(4-fluorophenyl)-1H-imidazol-5-yl]-1-methylethyl}phenol] | > 7.00
24 | CC(c1ncc(C(C)(C)c2ccc(Cl)c(Cl)c2)n1-c1ccc(F)cc1)S(=O)(=O)c1ccc(F)cc1Cl (centres unmarked) [2-{1-[(2-chloro-4-fluorophenyl)sulfonyl]ethyl}-5-[1-(3,4-dichlorophenyl)-1-methylethyl]-1-(4-fluorophenyl)-1H-imidazole] | 5.00 to 6.00
25 | CC(Sc1ccc(F)cc1Cl)c1ncc(C(C)(C)c2ccc(Cl)c(Cl)c2)n1-c1ccc(F)cc1 (centres unmarked) [2-{1-[(2-chloro-4-fluorophenyl)thio]ethyl}-5-[1-(3,4-dichlorophenyl)-1-methylethyl]-1-(4-fluorophenyl)-1H-imidazole] | 5.00 to 6.00
26 | CC(C)(O)c1cccc(F)c1CSc1ncc(C(C)(C)c2ccc(Cl)c(Cl)c2)n1-c1ccc(F)cc1 [2-{2-[({5-[1-(3,4-dichlorophenyl)-1-methylethyl]-1-(4-fluorophenyl)-1H-imidazol-2-yl}thio)methyl]-3-fluorophenyl}propan-2-ol] | 6.00 to 7.00
27 | CC(C)(O)c1cc(CSc2ncc(C(C)(C)c3ccc(Cl)c(Cl)c3)n2-c2ccc(F)cc2)ccc1Cl [2-{2-chloro-5-[({5-[1-(3,4-dichlorophenyl)-1-methylethyl]-1-(4-fluorophenyl)-1H-imidazol-2-yl}thio)methyl]phenyl}propan-2-ol] | 6.00 to 7.00
28 | CC(C)(C(=O)O)c1ccc(F)c(CSc2ncc(C(C)(C)c3ccc(Cl)c(Cl)c3)n2-c2ccc(F)cc2)c1 [2-{3-[({5-[1-(3,4-dichlorophenyl)-1-methylethyl]-1-(4-fluorophenyl)-1H-imidazol-2-yl}thio)methyl]-4-fluorophenyl}-2-methylpropanoic acid] | 5.00 to 6.00
29 | CC(C)(O)c1ccc(CSc2ncc(C(C)(C)c3ccc(Cl)c(Cl)c3)n2-c2ccc(F)cc2)c(Cl)c1 [2-{3-chloro-4-[({5-[1-(3,4-dichlorophenyl)-1-methylethyl]-1-(4-fluorophenyl)-1H-imidazol-2-yl}thio)methyl]phenyl}propan-2-ol] | 6.00 to 7.00
